Data reported in US8163790B2, “Metronidazole cocrystals and imipramine cocrystals” (New Form Pharmaceuticals, Inc., priority 2005, dated 2012).

Tests used:
[1] = water at 23° C., 900 mL, 100 rpm
[2] = intrinsic dissolution, 900 mL, 100 rpm, 0.50 cm^2; media 34 mM aqueous NaCl, water at 37° C., water at ambient temperature (medium of the value not stated); relative to imipramine HCl
[3] = Intrinsic dissolution of metronidazole:gallic acid cocrystal (Woods apparatus, UV 318 nm); assay type: physicochemical; conditions: water at 37° C., 900 mL, 100 rpm, 0.50 cm^2, relative to metronidazole
Procedure: Samples of metronidazole and the metronidazole cocrystal were compressed at 1000 psi for approximately one minute. […] A dissolution medium of water was used at 37° C. […] Metronidazole and the metronidazole:gallic acid cocrystal solutions were analyzed with a Cary 50 UV-VIS single-beam spectrophotometer without dilution at room temperature in a 1.000 cm quartz cuvette. […] Wavelength calibration was performed using holmium oxide.

SMILES: CN(C)CCCN1c2ccccc2CCc2ccccc21.Cl.O=C(O)c1ccc2ccccc2c1O
- imipramine HCl dissolved from the cocrystal ([1]; at 300 minutes): less than 0.0063 mg/mL
- dissolution rate compared with imipramine HCl (in words) ([1]; intrinsic dissolution, rate too slow to quantify accurately): much slower rate

SMILES: CN(C)CCCN1c2ccccc2CCc2ccccc21.Cl [imipramine HCl, Imipramine hydrochloride, reference compound]
- imipramine dissolved from imipramine HCl ([1]; in two minutes): 0.013 mg/mL

SMILES: CN(C)CCCN1c2ccccc2CCc2ccccc21.CN(C)CCCN1c2ccccc2CCc2ccccc21.Cl.Cl.O=C(O)C=CC(=O)O [imipramine HCl:fumaric acid cocrystal]
- dissolution rate of the cocrystal as % of the rate of imipramine HCl [2]: about 58%

SMILES: Cc1ncc([N+](=O)[O-])n1CCO.O=C(O)c1cc(O)c(O)c(O)c1 [metronidazole:gallic acid cocrystal]
- dissolution rate of the cocrystal as % of the rate of metronidazole [3]: about 22%
